Reference: US7767240B2, “Microbiological control in poultry processing” (priority 2001, dated 2010)

Assays:
[1] = test system: S. sonnei, L. monocytogenes, E. coli, S. enteritidis, P. aeruginosa, C. jejuni; assay: Mean % reduction from control over the six organisms (Example 3); format: cell-based; conditions: pH 8
Description: This group of tests was conducted to determine the effect of Clorox® bleach, Aquatize® biocide, and 1,3-dibromo-5,5-dimethylhydantoin (DBDMH) on carcass bacteria (Escherichia coli field strain) residual after 1,5-hour in a chill tank “soup”. Tests were conducted with soups at pH 7, pH 8 and pH 9 (adjusted by trisodium phosphate) for whole bird bacteria counts. Tests at pH 8 were conducted for individual bacteria counts.
In general the tests involved normal processing of 56-day-old birds and immersing the carcasses first in a warm bath containing 10^4 per mL Escherichia coli, 10^4 per mL Salmonella enteritidis, 10^4 per mL Pseudomonas aeruginosa, 10^4 per mL Campylobacter jejuni, and 10^4 per mL spoilage bacteria each from […] strains (Listeria monocytogenes and Shigella sonnei). The carcasses were then immersed in a chill tank “soup”, containing normal organic fluids (blood, fat, skin, and meat particles) and containing the microbiocides on the test.
The procedure used for whole bird wash sampling was as follows: • 1. All samples were kept at ≦50 degrees Fahrenheit following collection. • 2. Microbiological analyses of samples began within 24 hours of sample collection. • 3. Information on the individual sample identification, date of collection, time of collection (phase during shift), treatment group and location of sample point were recorded on each sample bottle. • 4. […]

[2] = test system: Campylobacter jejuni ATCC 29428; assay: Bacteria count per bird over 20-day storage (Example 4); format: cell-based; conditions: pH 8
Description: A study was conducted to determine the effect of Clorox® bleach, and 1,3-dibromo-5,5-dimethylhydantoin (DBDMH) on carcass bacteria residual after 1.5 hour in a chill tank solution and spoilage 20-day shelf life longevity (caused by bacteria contamination). Tests were conducted at pH 8 (adjusted by trisodium phosphate). Skin pigmentation (Minolta Color Meter L value or Lightness, a value or redness and b value or yellowness) were determined before and post-processing.
In general the study involved normal processing of 56-day-old birds, immersing carcasses first in a warm bath containing 10^4 per mL Escherichia coli, 10^4 per mL Salmonella enteritidis, 10^4 per mL Pseudomonas aeruginosa, 10^4 per mL Campylobacter jejuni, and 10^4 per mL spoilage bacteria each from […] strains (Listeria monocytogenes and Shigella sonnei). Carcass were then immersed in a chill tank “soup”, containing normal organic fluids (blood, fat, skin, and meat particles) and containing various disinfectants (termed test materials).
A DBDMH stock solution and test solutions, a bacteria stock solution, and a “chicken soup” were prepared as in Example 3. In addition, the bacterial broth treatments, the whole bird wash sampling procedure, and the methodologies used for quantitative or qualitative determinations for bacterial organisms were conducted as in Example 3.
In greater detail the trial events and experimental design used in this group of tests were as follows: • a) Test microorganisms used were: • Escherichia coli ATCC 11229 • Pseudomonas aeruginosa ATCC 15442 • Salmonella enteritidis ATCC 13076 • Shigella sonnei ATCC 9290 • Listeria monocytogenes ATCC 7644 • Campylobacter jejuni ATCC 29428 • b) Test Procedure: All test strains were grown individually at 35° C. for 24 hours in the media specified in Table 12. Cells were harvested by centrifugation at 10,000×g for 10 minutes and washed twice with Butterfield's Phosphate Buffer (BPB of pH 7.2). Cells were resuspended in BPB to obtain a cell suspension of approximately 1.0×10^8 CFU/mL for each microorganism. The target inoculum levels were approximately 10^6 CFU/mL in the final test solutions. In the cases of S. enteritidis and P. aeruginosa the species were washed by pouring into prepared sterile centrifuge tubes with cheesecloth filters. The culture was then pelleted and washed using above techniques and repeated 3 times. • c) The birds (56 days old) were processed under normal commercial conditions. • d) The bacteria were added to a large batch of the “chicken soup”, and then aliquots of the resultant mixture were distributed equally among the chill waters used for each test. Then the particular disinfectant composition under test was added to one of the chill waters. […]

SMILES: CC1(C)C(=O)N(Br)C(=O)N1Br [DBDMH, 1,3-dibromo-5,5-dimethylhydantoin]
- Mean % Reduction From Control ([1]; 10 ppm): 85.8%
- Mean % Reduction From Control ([1]; 20 ppm): 98.8%
- average bacteria count per bird, C. jejuni ([2]; Day 0, 10 ppm): 519 per bird
- average bacteria count per bird, C. jejuni ([2]; Day 0, 20 ppm): 17 per bird
- average bacteria count per bird, C. jejuni ([2]; Day 2, 10 ppm): 573 per bird
- average bacteria count per bird, C. jejuni ([2]; Day 2, 20 ppm): 25 per bird
- average bacteria count per bird, C. jejuni ([2]; Day 4, 10 ppm): 627 per bird
- average bacteria count per bird, C. jejuni ([2]; Day 4, 20 ppm): 39 per bird
- average bacteria count per bird, C. jejuni ([2]; Day 6, 10 ppm): 671 per bird
- average bacteria count per bird, C. jejuni ([2]; Day 6, 20 ppm): 78 per bird
- average bacteria count per bird, C. jejuni ([2]; Day 8, 10 ppm): 834 per bird
- average bacteria count per bird, C. jejuni ([2]; Day 8, 20 ppm): 157 per bird
- average bacteria count per bird, C. jejuni ([2]; Day 10, 10 ppm): 1043 per bird
- average bacteria count per bird, C. jejuni ([2]; Day 10, 20 ppm): 294 per bird
- average bacteria count per bird, C. jejuni ([2]; Day 12, 10 ppm): 1309 per bird
- average bacteria count per bird, C. jejuni ([2]; Day 12, 20 ppm): 594 per bird
- average bacteria count per bird, C. jejuni ([2]; Day 14, 10 ppm): 1551 per bird
- average bacteria count per bird, C. jejuni ([2]; Day 14, 20 ppm): 1191 per bird
- average bacteria count per bird, C. jejuni ([2]; Day 16, 10 ppm): 1880 per bird
- average bacteria count per bird, C. jejuni ([2]; Day 16, 20 ppm): 2259 per bird
- average bacteria count per bird, C. jejuni ([2]; Day 18, 10 ppm): 2359 per bird
- average bacteria count per bird, C. jejuni ([2]; Day 18, 20 ppm): 2835 per bird
- average bacteria count per bird, C. jejuni ([2]; Day 20, 10 ppm): 2789 per bird
- average bacteria count per bird, C. jejuni ([2]; Day 20, 20 ppm): 3059 per bird
